Columns and labels:
[1] = test system: R6/2 Huntington's mice; test: Neurological index scoring in R6/2 mice; assay type: in vivo
Protocol: The body weights were measured daily.
The following 30 behaviors were evaluated: Head Tremor, Head Twitch, Head Bobbing, Head Searching, Body Tremor, Body Twitch, Tail Tremor, Tail Twitch, Straub Tail, Piloerection, Shallow Respiration, Flattened Body Posture, Swollen Face, Ptosis, Irritability, Seizure, Urine Staining, Lacrimation, Salivation, Limb Splay, Catalepsy, Abnormal Gait, Tip Toe Walking, Slow Careful Movements, Excessive Grooming, Circling, Sniffing, and Chewing. In addition to the above occurrences the chronic observational phase included excessive locomotor activity, loss of startle response, loss of righting reflex, dehydration and tail pinch. The assessment was performed as follows: A score of 0 was assigned for normal features (such as locomotor activity) or for the absence of abnormal features (such as absence of piloerection); a score of 1 was given when mild abnormalities were observed; and a score of 2-3 was given when severe abnormalities were observed. All of these features were scored from simple observation of the mice in their cage, except for the startle, tail pinch and righting reflexes which were direct manipulations. To test the startle reflex, a small hand clicker was used to generate a loud popping noise and the following behaviors were identified during this process: jumping, freezing, and rapid eye blinks. For the righting reflex, each mouse was then removed from its home cage and placed on its back allowing the mouse to correct itself. Tail pinch was tested by gently squeezing the end of the tail with forceps.

[2] = test system: CUG-repeat RNA; conditions: reported previously; cited from earlier work

## CN(C)CCCNC(=N)c1ccc(C(=N)NCCCN(C)C)cc1.Cl.Cl.Cl.Cl [DB213]
[1]; i.n. 300 mg/kg, day 3, p<0.05
  Mean neurological index score of all parameters vs vehicle: significantly higher mean score
[1]; i.v. dosing
  Neurological index score, differences between treatment groups: no differences in neurological index score
[1]; intranasal dosing
  Neurological index score: increased neurological index score
[2]
  Binding to CUG repeats / CUG-repeat RNA: did not bind to CUG repeats

— patent publication US10143666B2, “Small molecule inhibitors targeting CAG-repeat RNA toxicity in polyglutamine diseases” (The Chinese University of Hong Kong, priority 2015, dated 2018)
